Results from ChEMBL document CHEMBL1201862, “PubChem BioAssay data set” (2004).
Active and inactive are the calls of the source.

What was measured:
[1] = target: Intestinal-type alkaline phosphatase (Mus musculus, UniProt P24822); assay: PubChem AID 488785; type: functional
[2] = target: 72 kDa type IV collagenase (Homo sapiens, UniProt P08253); assay: Dose Response validation of uHTS RPN11 inhibitor hits using a MMP-2 Fluorescence assay.; type: functional
[3] = target: Induced myeloid leukemia cell differentiation protein Mcl-1 (Homo sapiens, UniProt Q07820); type: functional
[4] = target: Intestinal-type alkaline phosphatase (Homo sapiens, UniProt P09923); assay: inhibition of human intestinal alkaline phosphatase – biochemical, dose response (AID 488876); type: functional
[5] = target: Multidrug resistance protein CDR2 (Candida albicans (strain SC5314 / ATCC MYA-2876) (Yeast), UniProt P78595); assay: CaCDR2 efflux pump inhibitors in yeast, dose response, S. cerevisiae AD1-8u, singleplex, Cherry Pick1 hits (AID 588604); type: functional
[6] = target: 26S proteasome non-ATPase regulatory subunit 14 (Homo sapiens, UniProt O00487); assay: inhibition of proteasome subunit RPN11 – biochemical, fluorescence polarization, uHTS hits, confirmation (AID 602368); type: functional
Prothrombin = Prothrombin (Bos taurus, UniProt P00735); assay: thrombin inhibition, dose response, biochemical, fluorescence polarization, uHTS hits (AID 602369); type: functional
[7] = target: T1, Alkaline phosphatase, tissue-nonspecific isozyme (Homo sapiens, UniProt P05186); assay: TNAP enzyme inhibition by screening hits, dose response, selectivity assay for mouse IAP inhibitor project, biochemical, human TNAP, uHTS hits (AID 488906); type: functional
T1 sequence (P05186 whole entry): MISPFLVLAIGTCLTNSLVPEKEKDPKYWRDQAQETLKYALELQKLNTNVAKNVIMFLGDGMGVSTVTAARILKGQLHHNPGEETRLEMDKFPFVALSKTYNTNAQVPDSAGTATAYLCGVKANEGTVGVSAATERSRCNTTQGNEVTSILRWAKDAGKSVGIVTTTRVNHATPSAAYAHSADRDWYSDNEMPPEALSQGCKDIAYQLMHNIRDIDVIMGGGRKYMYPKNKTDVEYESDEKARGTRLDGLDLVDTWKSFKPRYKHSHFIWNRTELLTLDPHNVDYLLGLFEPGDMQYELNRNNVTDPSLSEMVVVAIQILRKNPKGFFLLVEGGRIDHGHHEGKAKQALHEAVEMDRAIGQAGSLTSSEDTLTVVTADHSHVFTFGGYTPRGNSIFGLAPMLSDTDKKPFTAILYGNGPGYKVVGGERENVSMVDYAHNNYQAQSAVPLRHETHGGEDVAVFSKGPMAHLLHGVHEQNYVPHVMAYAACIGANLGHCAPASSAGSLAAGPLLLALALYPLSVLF

[8] = target: T2, Rac GTPase-activating protein 1 (Homo sapiens, UniProt Q9H0H5); assay: MgcRacGAP GTPase-activating activity inhibitors, confirmation, biochemical, ADP Hunter fluorescence, primary and confirmatory (AID 624330); type: functional
T2 sequence (Q9H0H5 whole entry): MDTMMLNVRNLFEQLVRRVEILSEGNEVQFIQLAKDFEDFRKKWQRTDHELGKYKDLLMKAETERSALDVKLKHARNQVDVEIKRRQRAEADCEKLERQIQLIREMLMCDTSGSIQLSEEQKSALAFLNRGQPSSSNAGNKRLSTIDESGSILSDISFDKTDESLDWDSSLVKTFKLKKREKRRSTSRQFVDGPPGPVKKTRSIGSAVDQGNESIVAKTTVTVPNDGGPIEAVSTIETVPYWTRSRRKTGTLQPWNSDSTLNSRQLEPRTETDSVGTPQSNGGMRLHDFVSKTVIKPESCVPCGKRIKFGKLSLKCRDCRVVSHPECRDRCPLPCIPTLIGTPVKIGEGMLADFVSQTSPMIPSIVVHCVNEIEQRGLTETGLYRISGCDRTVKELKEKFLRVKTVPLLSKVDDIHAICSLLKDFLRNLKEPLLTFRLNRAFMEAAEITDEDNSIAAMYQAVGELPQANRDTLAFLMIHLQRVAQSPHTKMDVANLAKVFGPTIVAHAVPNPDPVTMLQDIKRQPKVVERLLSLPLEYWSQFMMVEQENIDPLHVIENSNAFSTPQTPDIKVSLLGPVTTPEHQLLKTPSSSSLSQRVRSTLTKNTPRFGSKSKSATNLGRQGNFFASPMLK

[9] = target: Dual specificity tyrosine-phosphorylation-regulated kinase 1A (Rattus norvegicus, UniProt Q63470); type: biochemical, Homo sapiens
Protein RecA = target: T3, Protein RecA (Mycobacterium tuberculosis, UniProt P9WHJ3); assay: Fluorescence Cell-Free Homogeneous Dose Retest to Identify Inhibitors of RecA-Intein Splicing Activity. [Related pubchem assays (depositor defined):AID2097, AID2223, AID489010, AID492950]; type: functional
T3 sequence (P9WHJ3 whole entry): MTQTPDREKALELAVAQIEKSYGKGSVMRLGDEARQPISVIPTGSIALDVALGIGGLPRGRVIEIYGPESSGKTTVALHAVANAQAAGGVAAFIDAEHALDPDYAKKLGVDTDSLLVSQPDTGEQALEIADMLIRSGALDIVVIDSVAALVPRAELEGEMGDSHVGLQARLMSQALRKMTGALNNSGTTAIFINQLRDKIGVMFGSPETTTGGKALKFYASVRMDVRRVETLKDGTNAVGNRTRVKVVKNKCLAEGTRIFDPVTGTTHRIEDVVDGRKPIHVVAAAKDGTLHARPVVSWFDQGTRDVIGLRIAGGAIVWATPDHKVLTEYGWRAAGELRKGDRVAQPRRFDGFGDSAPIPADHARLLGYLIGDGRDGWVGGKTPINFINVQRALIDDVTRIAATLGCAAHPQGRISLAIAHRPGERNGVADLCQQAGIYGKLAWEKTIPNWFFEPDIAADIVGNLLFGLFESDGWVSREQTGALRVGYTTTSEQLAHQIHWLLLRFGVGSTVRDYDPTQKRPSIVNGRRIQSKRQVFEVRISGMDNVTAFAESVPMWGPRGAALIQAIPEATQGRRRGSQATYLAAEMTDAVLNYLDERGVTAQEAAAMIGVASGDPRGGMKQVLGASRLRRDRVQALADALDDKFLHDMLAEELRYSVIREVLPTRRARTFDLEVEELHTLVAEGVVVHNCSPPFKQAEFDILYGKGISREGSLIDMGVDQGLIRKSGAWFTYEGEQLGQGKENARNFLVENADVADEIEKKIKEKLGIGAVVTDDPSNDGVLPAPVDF

[10] = target: DNA dC->dU-editing enzyme APOBEC-3G (Homo sapiens, UniProt Q9HC16); assay: APOBEC3G deaminase inhibitors, SAR follow-up, biochemical, fluorescence, single-stranded DNA substrate (AID 602136); type: functional; details: read-out: IC50_Mean
[11] = nonselective inhibitors of cellular cAMP signaling, dose response, counter-screen for MC4R biased antagonist project, cell-based, TR-FRET cAMP detection (AID 602305); type: functional;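 further: U2OS cells stimulated with forskolin near its EC80 as the cAMP inducer; potency is for inhibition of forskolin-stimulated cAMP signaling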
[12] = target: DNA dC->dU-editing enzyme APOBEC-3A (Homo sapiens, UniProt P31941); assay: SAR analysis of small molecule inhibitors of APOBEC3A DNA Deaminase via a fluorescence-based single-stranded DNA deaminase assay.; type: functional; details: read-out: IC50_Mean
Melanocortin receptor 4 = Melanocortin receptor 4 (Homo sapiens, UniProt P32245); assay: MC4R antagonist potency on cAMP, dose response, cell-based, TR-FRET, biased antagonists (AID 602298); type: functional;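 further: antagonist potency against agonist-stimulated cAMP production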
[13] = target: T4, Replicative DNA helicase DnaB (Mycobacterium tuberculosis, UniProt P9WMR3); assay: DnaB intein splicing inhibitors, dose response, biochemical, cell-free fluorescence (AID 449749); type: functional
T4 sequence (P9WMR3 whole entry): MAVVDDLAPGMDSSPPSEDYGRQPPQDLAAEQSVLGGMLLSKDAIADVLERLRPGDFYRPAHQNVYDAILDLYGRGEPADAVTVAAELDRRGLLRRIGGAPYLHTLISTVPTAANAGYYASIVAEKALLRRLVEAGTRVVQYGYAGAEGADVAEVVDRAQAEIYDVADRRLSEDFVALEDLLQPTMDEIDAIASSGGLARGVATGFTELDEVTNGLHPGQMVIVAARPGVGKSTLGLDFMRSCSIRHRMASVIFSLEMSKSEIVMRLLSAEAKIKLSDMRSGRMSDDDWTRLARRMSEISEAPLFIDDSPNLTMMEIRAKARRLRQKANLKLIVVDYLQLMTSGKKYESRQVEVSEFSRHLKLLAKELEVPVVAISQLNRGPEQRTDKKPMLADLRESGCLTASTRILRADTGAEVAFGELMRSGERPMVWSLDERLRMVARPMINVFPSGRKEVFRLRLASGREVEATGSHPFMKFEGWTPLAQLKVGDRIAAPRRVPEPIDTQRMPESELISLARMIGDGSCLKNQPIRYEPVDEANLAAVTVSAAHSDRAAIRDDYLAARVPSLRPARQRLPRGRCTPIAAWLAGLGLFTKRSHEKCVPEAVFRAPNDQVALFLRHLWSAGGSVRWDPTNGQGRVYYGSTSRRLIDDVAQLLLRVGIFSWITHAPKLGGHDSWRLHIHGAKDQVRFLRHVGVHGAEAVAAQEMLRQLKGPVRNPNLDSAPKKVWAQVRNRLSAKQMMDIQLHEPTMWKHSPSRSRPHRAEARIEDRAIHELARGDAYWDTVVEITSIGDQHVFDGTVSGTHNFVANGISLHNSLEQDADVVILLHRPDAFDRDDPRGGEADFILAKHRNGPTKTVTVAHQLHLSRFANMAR

[14] = target: Melanin-concentrating hormone receptor 1 (Homo sapiens, UniProt Q99705); assay: Late-stage fluorescence-based counterscreen for antagonists of the G-protein coupled receptor 7 (GPR7): cell-based dose response assay to identify antagonists of the melanin-concentrating hormone receptor 1 (MCHR1) Set 5.; type: functional
[15] = target: T5, Neuropeptides B/W receptor type 1 (Homo sapiens, UniProt P48145); assay: GPR7 antagonist potency, late-stage follow-up, cell-based, fluorescence, dose response, set 5 (AID 588566); type: functional
T5 sequence (P48145 whole entry): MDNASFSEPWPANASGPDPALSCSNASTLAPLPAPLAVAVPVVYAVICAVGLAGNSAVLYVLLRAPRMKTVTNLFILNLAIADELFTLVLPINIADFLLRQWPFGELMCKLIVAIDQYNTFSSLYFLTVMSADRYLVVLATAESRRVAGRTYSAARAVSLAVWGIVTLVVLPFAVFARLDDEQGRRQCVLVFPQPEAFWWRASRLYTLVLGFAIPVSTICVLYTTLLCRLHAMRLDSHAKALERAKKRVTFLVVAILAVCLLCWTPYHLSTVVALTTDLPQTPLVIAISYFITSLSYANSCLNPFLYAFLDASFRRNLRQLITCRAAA

[16] = target: Cell division cycle 7-related protein kinase (Homo sapiens, UniProt O00311); type: functional;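 further: value obtained from a kinome-wide kinase panel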
[17] = target: Interleukin-1 receptor-associated kinase 4 (Homo sapiens, UniProt Q9NWZ3); type: functional
[18] = target: Mitogen-activated protein kinase kinase kinase kinase 4 (Homo sapiens, UniProt O95819); type: functional
[19] = target: Dual specificity protein kinase CLK4 (Homo sapiens, UniProt Q9HAZ1); type: functional
[20] = target: Glycogen synthase kinase-3 beta (Homo sapiens, UniProt P49841); type: functional;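 further: value comes from a broad kinome profiling panel, with GSK3B as the panel member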
[21] = target: Homeodomain-interacting protein kinase 2 (Homo sapiens, UniProt Q9H2X6); type: functional;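 further: measured within a kinome-wide kinase profiling panel, HIPK2 being one panel member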
[22] = target: T6, Protein disulfide-isomerase (Homo sapiens, UniProt P07237); assay: PDI inhibitors, insulin turbidity readout, dose response, biochemical, absorbance, cherry-picked samples, set 2 (AID 624274); type: functional
[23] = target: T6, Protein disulfide-isomerase; assay: PDI inhibitors, insulin aggregation turbidity, dose response, biochemical, absorbance, cherry-picked samples (AID 602350); type: functional

T6 sequence (P07237 whole entry): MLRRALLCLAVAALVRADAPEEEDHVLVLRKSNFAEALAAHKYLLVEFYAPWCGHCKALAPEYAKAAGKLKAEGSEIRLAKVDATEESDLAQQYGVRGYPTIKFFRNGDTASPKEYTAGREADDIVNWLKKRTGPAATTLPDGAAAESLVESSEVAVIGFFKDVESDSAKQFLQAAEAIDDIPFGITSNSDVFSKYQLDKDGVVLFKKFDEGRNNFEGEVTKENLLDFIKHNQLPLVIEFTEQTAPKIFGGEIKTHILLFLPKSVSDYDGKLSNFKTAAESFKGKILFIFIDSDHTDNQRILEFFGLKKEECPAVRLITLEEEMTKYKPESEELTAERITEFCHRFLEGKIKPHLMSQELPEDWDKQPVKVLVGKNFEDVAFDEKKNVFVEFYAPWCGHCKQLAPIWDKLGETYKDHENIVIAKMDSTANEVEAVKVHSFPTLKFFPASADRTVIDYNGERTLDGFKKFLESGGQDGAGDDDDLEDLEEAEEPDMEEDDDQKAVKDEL
Sequence of Dual specificity protein kinase CLK4 (Q9HAZ1 whole entry): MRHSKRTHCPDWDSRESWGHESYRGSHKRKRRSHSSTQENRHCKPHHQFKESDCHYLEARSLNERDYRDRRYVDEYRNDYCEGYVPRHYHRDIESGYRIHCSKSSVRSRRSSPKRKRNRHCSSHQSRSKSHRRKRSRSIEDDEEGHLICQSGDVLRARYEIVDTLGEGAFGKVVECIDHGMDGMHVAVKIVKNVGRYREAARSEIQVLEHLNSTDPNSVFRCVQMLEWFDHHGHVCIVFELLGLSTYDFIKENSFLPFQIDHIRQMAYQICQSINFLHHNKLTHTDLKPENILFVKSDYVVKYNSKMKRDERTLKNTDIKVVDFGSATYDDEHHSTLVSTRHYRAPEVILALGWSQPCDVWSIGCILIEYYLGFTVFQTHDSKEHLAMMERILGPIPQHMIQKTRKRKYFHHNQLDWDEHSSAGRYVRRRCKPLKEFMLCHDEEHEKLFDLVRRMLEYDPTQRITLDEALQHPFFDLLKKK
Sequence of 72 kDa type IV collagenase (P08253 whole entry): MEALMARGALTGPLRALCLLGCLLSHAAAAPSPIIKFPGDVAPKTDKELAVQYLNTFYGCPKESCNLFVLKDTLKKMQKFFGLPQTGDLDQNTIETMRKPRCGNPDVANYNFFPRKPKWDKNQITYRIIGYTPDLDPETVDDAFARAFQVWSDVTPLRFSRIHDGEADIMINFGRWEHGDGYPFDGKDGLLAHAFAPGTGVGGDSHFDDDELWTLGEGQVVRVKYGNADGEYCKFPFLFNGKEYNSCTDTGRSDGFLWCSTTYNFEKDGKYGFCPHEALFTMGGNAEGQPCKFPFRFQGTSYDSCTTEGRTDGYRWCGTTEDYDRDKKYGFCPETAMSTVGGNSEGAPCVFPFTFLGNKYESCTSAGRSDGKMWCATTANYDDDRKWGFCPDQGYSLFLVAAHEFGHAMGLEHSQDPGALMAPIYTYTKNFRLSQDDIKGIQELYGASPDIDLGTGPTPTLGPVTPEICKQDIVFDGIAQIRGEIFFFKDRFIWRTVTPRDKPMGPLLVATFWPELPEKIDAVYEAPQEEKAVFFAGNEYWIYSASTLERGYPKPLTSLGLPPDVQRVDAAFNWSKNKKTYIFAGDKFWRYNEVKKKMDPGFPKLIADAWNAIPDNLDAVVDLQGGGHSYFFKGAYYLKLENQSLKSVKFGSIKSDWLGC
Sequence of Intestinal-type alkaline phosphatase (Homo sapiens, UniProt P09923) (P09923 whole entry): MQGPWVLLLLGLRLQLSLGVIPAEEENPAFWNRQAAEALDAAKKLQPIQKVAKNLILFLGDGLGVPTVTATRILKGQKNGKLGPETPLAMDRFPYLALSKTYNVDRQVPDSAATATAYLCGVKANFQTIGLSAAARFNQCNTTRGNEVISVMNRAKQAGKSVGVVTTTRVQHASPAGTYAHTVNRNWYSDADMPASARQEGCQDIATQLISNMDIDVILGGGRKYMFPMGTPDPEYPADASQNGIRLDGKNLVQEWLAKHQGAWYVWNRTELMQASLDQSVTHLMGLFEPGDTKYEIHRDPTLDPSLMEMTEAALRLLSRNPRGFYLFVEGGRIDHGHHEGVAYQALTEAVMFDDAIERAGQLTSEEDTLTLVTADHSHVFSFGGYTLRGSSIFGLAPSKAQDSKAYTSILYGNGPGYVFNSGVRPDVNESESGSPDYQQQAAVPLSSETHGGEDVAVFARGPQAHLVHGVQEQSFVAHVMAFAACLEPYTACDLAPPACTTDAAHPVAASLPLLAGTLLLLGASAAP
Sequence of Melanocortin receptor 4 (P32245 whole entry): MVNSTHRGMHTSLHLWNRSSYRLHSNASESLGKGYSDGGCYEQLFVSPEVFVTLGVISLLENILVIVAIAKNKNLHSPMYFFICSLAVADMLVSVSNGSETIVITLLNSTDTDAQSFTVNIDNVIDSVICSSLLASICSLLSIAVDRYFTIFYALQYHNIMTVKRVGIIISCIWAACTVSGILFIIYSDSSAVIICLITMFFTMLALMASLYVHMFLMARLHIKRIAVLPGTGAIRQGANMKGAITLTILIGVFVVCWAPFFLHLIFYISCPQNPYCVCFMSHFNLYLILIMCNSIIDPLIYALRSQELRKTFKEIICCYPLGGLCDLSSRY
Sequence of Cell division cycle 7-related protein kinase (O00311 whole entry): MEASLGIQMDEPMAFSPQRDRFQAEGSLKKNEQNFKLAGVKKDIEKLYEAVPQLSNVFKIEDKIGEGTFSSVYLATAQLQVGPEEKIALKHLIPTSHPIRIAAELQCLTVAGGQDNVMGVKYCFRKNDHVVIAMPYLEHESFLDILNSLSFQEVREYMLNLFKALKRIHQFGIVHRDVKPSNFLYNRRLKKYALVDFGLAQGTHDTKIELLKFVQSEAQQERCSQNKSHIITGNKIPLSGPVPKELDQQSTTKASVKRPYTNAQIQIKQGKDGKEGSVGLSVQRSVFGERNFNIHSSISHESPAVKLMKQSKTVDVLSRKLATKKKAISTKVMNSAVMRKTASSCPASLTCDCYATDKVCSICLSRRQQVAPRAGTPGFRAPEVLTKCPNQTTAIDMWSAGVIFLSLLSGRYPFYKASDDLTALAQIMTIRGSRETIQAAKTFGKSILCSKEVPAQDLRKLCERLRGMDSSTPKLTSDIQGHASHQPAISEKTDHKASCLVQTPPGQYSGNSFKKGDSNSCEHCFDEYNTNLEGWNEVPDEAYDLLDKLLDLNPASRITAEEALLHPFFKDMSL
Sequence of Mitogen-activated protein kinase kinase kinase kinase 4 (O95819 whole entry): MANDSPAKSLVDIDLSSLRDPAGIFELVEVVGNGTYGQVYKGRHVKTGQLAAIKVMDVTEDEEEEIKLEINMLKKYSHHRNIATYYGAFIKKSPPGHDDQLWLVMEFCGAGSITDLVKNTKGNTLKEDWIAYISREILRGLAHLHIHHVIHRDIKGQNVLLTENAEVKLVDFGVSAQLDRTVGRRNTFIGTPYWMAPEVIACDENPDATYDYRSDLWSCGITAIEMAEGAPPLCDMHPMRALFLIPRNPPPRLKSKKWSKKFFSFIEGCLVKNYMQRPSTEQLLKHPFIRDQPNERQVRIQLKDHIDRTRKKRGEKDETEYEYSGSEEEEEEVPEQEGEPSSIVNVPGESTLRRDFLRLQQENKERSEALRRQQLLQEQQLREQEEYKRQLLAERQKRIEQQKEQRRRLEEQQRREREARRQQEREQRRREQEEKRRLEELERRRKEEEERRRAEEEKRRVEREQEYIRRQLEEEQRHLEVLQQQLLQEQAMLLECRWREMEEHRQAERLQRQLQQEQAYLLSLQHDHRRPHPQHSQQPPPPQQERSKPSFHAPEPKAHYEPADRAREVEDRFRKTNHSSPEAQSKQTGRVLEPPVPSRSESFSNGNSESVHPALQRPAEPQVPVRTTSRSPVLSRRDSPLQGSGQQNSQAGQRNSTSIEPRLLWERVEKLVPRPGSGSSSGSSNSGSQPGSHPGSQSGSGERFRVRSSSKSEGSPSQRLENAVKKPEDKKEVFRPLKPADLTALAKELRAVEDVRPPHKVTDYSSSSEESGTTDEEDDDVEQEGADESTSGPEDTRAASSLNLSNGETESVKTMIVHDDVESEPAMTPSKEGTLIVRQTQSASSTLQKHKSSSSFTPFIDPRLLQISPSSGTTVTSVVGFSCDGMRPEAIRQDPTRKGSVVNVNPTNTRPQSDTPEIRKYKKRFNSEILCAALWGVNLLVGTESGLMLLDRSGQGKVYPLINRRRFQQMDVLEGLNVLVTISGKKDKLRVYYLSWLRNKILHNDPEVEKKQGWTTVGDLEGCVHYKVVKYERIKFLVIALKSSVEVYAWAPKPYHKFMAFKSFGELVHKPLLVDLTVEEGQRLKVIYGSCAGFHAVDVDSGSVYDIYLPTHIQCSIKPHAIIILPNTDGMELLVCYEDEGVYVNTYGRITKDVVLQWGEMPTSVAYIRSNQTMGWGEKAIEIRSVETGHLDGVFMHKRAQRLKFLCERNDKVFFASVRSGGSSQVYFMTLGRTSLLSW
Sequence of Intestinal-type alkaline phosphatase (Mus musculus, UniProt P24822) (P24822 whole entry): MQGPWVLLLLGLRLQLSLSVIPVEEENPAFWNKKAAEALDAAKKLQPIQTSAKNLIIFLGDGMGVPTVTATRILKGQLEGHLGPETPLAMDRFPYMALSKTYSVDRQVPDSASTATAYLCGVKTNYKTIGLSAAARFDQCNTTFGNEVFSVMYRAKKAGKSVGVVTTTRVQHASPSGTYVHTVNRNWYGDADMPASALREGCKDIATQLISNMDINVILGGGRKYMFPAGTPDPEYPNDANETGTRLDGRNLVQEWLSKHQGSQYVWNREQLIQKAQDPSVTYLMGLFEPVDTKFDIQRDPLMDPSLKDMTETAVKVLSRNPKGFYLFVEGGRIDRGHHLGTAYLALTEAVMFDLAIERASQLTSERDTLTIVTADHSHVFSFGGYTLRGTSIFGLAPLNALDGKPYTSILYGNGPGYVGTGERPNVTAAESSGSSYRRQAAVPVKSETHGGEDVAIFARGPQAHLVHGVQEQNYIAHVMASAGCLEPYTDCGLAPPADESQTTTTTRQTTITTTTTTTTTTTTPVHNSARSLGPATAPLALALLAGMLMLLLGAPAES

With `O=C1/C(=C/c2ccc(O)c(O)c2)Oc2cc(O)ccc21` [SULFURETIN] the IC50 [1] was 19.7 µM (active), the IC50 [2] was > 100 µM (inactive) and the IC50 [3] was 1.53 µM (active). The IC50 [4] was 66.3 µM (active), the EC50 [5] was 0.424 µM (active) and the IC50 [6] was 23.8 µM (active). For the same compound, the IC50 (Prothrombin) was 21.7 µM (active), the IC50 [7] was 52.9 µM (active) and the IC50 [8] was 20.6 µM (active). The AC50 [9] was 2.32 µM (active).
With `CS(=O)(=O)c1nc([N+](=O)[O-])nn1CCCc1ccccc1` the EC50 (Protein RecA) was 14.5 µM (active), the IC50 [10] was > 99 µM (inactive) and the IC50 [11] was > 64.5 µM (inactive). For the same compound, the IC50 [12] was > 99 µM (inactive), the IC50 (Melanocortin receptor 4) was > 64.5 µM (inactive) and the AC50 [13] was 7.7 µM (active).
In the case of `N#CC(c1ccccc1)c1cnn(Cc2cccc3ccccc23)c(=O)c1Cl` (stereo unspecified), the IC50 [14] is reported as > 20 µM (inactive) and the IC50 [15] is reported as ~0.702 µM (active).
With `CN(C)CCCOc1cc(-c2ccncc2)cc2[nH]nc(N)c12` the Ki [16] was 0.0126 µM (active), the Ki [17] was 0.158 µM (active) and the Ki [18] was 0.794 µM (active). The Ki [19] was 0.0794 µM (active), the Ki [20] was 6.31 µM (active) and the Ki [21] was > 3.16 µM (inactive).
With `CC(NCC(O)COCc1ccc(Cl)cc1)c1ccccc1` (stereo unspecified) the AC50 [22] was 0.009 µM (active) and the AC50 [23] was < 0.009 µM (active).
